Patent publication US11654178B2, “Cyclic prosaposin peptides and uses thereof” (CHILDREN'S MEDICAL CENTER CORPORATION, priority 2014, dated 2023)
Where a SMILES comes first, the peptide text is derived from it.

What was measured:
thrombospondin-1 (Tsp-1) = experiment: Tsp-1 activation in cultured cells by Western blot; type: cell-based; conditions: cyclic peptides, 4 micrograms/mL or 10 micrograms/mL, Western blot, FIG. 2
Method: Cells were cultured and contacted with 4 micrograms/mL or 10 micrograms/mL of each peptide and the level of thrombospondin-1 (Tsp-1) activation was measured by Western blot. Tsp-1 has been previously shown to be activated by Saposin A protein.

[1] = Stability in human plasma at 37° C., read out as Tsp-1 stimulation in WI-38 fibroblasts (ELISA); type: in vitro ADME; conditions: 24 hours
Method: The cyclic peptide DWLPK (SEQ ID NO: 1) was also tested for stability in human plasma compared to the linear peptide dWIP (SEQ ID NO: 5). Each peptide was incubated in human plasma at 37 degrees Celsius, for 2, 4, 8, or 24 hours.
Cyclization also has the effect of increasing the stability of peptides by forcing them into a conformation that is not recognized by most naturally occurring proteases (9, 10, 14-18). The stability of the cyclic peptide to the linear d-amino acid peptide in human plasma was compared.

[2] = tested on: patient-derived ovarian cancer cells expressing luciferase; experiment: Mouse model of ovarian cancer, luciferase tumor burden and histology; type: in vivo, mice; conditions: 10 mg/kg for 10 days
Method: Next the cyclic peptide DWLPK (SEQ ID NO: 1) was tested in a mouse model of ovarian cancer. For the ovarian cancer mouse model, 1 million patient-derived ovarian cancer cells expressing luciferase were injected intraperitoneally into mice. The tumor burden was measured in vivo using luciferase. Treatment with the cyclic peptide began after 40 days and was administered for 10 days at 10 mg/kg. After 10 days of treatment, the mice were euthanized and the tumor was analyzed histologically.

Tsp-1 = Tsp-1 stimulation in macrophages in mice; type: in vivo; conditions: FIG. 7, F4/80 macrophages
[3] = mouse, in vivo
[4] = tested on: DSS-induced model of Crohn's Disease; experiment: Dextran Sodium Sulfate (DSS)-induced model of Crohn's Disease; type: in vivo, mice
Method: A model of Crohn's disease was used to test the efficacy of the cyclic peptide DWLPK (SEQ ID NO: 1) for treating Crohn's disease. The cyclic peptide was tested in a Dextran Sodium Sulfate (DSS)-induced model of Crohn's Disease where DSS was given to the mice in their drinking water (3.5% weight:volume) for 7 days. In one group the mice were treated concurrently with the cyclic peptide and DSS, while the other group was treated with DSS alone.

[5] = tested on: thrombospondin-1 (Tsp-1) in WI-38 lung fibroblasts; experiment: Stimulation of Tsp-1 in WI-38 lung fibroblasts (western blot); type: cell-based
Source text: Identification of both a 4- and 5-amino acid peptide derived from the saposin A domain of Psap that was able to inhibit both a tail vein model of Lewis Lung Carcinoma metastasis and in an adjuvant model of breast cancer metastasis when administered systemically was previously described (3). The therapeutic efficacy of peptides is often limited by their stability, or resistance to degradation by proteases. […] The stability of the 4-amino acid Psap peptide by incorporating d-amino acids at different moieties was investigated. Two peptides with d-amino acids incorporated, in combination, at the first (aspartate) and third (leucine) or the second (tryptophan) and fourth (proline) residues were synthesized. The activity of these peptides along with the native 1-amino acid peptide in vitro by measuring their ability to stimulate thrombospondin-1 (Tsp-1) in WI-38 lung fibroblasts was tested.
While the results of the peptide treatment of the PDX model of ovarian cancer were very promising it was postulated that the stability and activity of the peptide could be increased even more. The peptide derived from Psap was located in a region of the protein that contained a 13-amino acid loop between two helices that was stabilized by a disulfide bond (3). As such a 5-amino acid peptide that was cyclized via backbone (N—C) cyclization was synthesized (FIG. 14A, cyclic DWLPK (SEQ ID NO: 1)). […]

DF14 cells = experiment: DF14 PDX model of metastatic ovarian cancer, cyclic peptide for 10 days; type: in vivo, mice
Method: Based on these findings the efficacy of the cyclic peptide using the DF14 model was tested. In order to better study the effects of the peptide on the metastatic lesions mice were injected with 1×10^7 cells and allowed the luciferase signal to reach 9×10^9 RLU. The mice were treated with the cyclic peptide for only 10 days to ensure that there would be sufficient tumor tissue to analyze. […] The liver, spleen and omentum were analyzed of both the peptide and control treated mice by H&E, and IHC for Tsp-1, Gil and TUNEL. The metastatic lesions in the control treated mice were, on average, 2.3-fold larger than those in the peptide treated mice (FIG. 14E). […] Moreover, all of the lesions in the peptide treated mice contained a significant percentage of TUNEL positive cells, with an average of 40% TUNEL positive cells/lesion (FIGS. 14H and 14I). Conversely, control treated tumors contained, on average, only 1.4% TUNEL positive cells/lesion (FIGS. 14H and 14I).

[6] = Activity of cyclic versus linear peptide (FIG. 18)
pancreatic cancer = experiment: Anti-tumor activity against pancreatic cancer (FIGS. 19 and 20); type: in vivo

CC(C)C[C@@H]1NC(=O)[C@H](Cc2c[nH]c3ccccc23)NC(=O)[C@H](CC(=O)O)NC(=O)[C@H](CCCCN)NC(=O)[C@@H]2CCCN2C1=O [cyclic DWLPK] (cyclo(DWLPK))
effectiveness at increasing the level of Tsp-1 (thrombospondin-1 (Tsp-1)): most effective | ability to activate Tsp-1 after incubation in human plasma ([1]; 37 degrees Celsius, FIG. 3): retained the ability to activate Tsp-1 | Tsp-1 stimulating activity retained after incubation in human plasma ([1]; 37° C., ELISA): greater than 70% | size of treated tumors relative to untreated tumors by histology [2]: < 25% | Tsp-1 expression in treated tumors ([2]; histology): expressed Tsp-1 | luciferase output (tumor burden) ([2]; starting after 40 days, FIG. 6): went down | Tsp-1 in macrophages in mice (Tsp-1): stimulated Tsp-1 in macrophages | toxicity to the liver or spleen by histology [3]: did not cause any toxicity | inflammation (MPO enzymatic activity) ([4]; DSS 3.5% in drinking water 7 days, peptide concurrently, FIG. 9): significantly reduced inflammation | body weight loss versus DSS only ([4]; FIG. 10): lost less weight | Tsp-1 stimulation in intestine ([4]; FIG. 11): stimulate Tsp-1 | macrophage infiltration ([4]; FIG. 11): inhibit macrophage infiltration | Tsp-1 stimulation in vitro relative to d-amino acid linear peptide [5]: 3 fold | size of metastatic lesions in control treated mice relative to peptide treated mice (DF14 cells; 10 days of treatment, on average): 2.3 fold | TUNEL positive cells/lesion, average (DF14 cells; 10 days of treatment, control 1.4%): 40% | average luciferase signal after treatment (DF14 cells; after 10 days of treatment, start at 9×10^9 RLU, 10 mg/kg QD): 4×10^8 RLU | Tsp-1 staining of treated tumors (IHC) (DF14 cells; all of the peptide treated tumors): stained positive for Tsp-1 | activity relative to the linear peptide [6]: approximately 2 fold | anti-tumor activity against pancreatic cancer (pancreatic cancer; FIG. 19): significant anti-tumor activity | effect on metastasis of pancreatic cancer (pancreatic cancer; FIG. 20): inhibits metastasis | effect on metastatic pancreatic cancer (pancreatic cancer; FIG. 20): regresses metastatic pancreatic cancer
